From US20030064414A1, “Rapid assessment of coagulation activity in whole blood” (priority 2001, published 2003)

Test system: whole blood
Test: Recalcified clotting time of citrated whole blood, aprotinin and lipidated tissue factor added at assay initiation
Assay type: biochemical
Excerpt: In the previous examples, blood was always collected in the presence of a calcium-chelating anticoagulant (citrate) and contact pathway inhibitor (aprotinin or corn trypsin inhibitor). It would be desirable for certain applications, for example hospital emergency department use, if blood could be […] into a standard commercially available and FDA-approved sodium citrate tube, such as that supplied by Becton Dickinson, Franklin Lakes, N.J. and Greiner America, Monroe, N.C. and the contact pathway inhibitor added concomitantly during assay initiation with lipidated tissue factor and divalent calcium. In this example, blood from a single donor was collected into sterile evacuated-tubes containing 3.2% buffered sodium citrate (Greiner). In FIG. 7A, clotting was initiated with calcium in the presence or absence of 15,000 KIU/ml aprotinin (Centerchem Inc., Norwalk, Conn.). […] In contrast, blood recalcified in the absence of aprotinin clotted in 250 sec. Thus, the contact pathway of blood coagulation has been abolished. FIG. 7B depicts a dose-response to Lovenox® when citrated blood was recalcified in the presence of 15,000 U/ml aprotinin and 10 units of lipidated tissue factor.
(>1500 sec) to 180 sec. The correlation (R^2) of clotting time to Enoxaparin® dose was 0.9915. The slope was 550 and intercept 210 sec. […]

Substance	recalcified clotting time (citrated blood, calcium and 15,000 KIU/ml aprotinin, no tissue factor, 1500 sec maximal clotting time, FIG. 7A)	recalcified clotting time (citrated blood recalcified with 15,000 U/ml aprotinin and 10 units of lipidated tissue factor)
aprotinin	> 1500 s	–
lipidated tissue factor: lipidated recombinant tissue factor with synthetic phospholipids, procoagulant that initiates the extrinsic pathway	–	180 s
